Data on one compound can be found in patent US20230404981A1, “[…] ACTIVE COMPOUND FORMULATIONS” (priority 2020, published 2023).

A short description of the data set: in vivo. As to conditions: Sprague Dawley, rat; for AUC(0-t) / Cmax / Tmax: im.

Method: An in vivo pharmacology study was completed in Sprague Dawley rats over 14 days, to determine the drug release kinetics of 50, 100, or 200 mg/kg doses of niclosamide administered as intramuscular injections of an aqueous dispersion of niclosamide nanoparticles.
Each animal received two 0.2 mL injections, one in each thigh, of one of the 25, 50, or 100 mg/kg of niclosamide dispersions for a total dose of 50, 100, or 200 mg/kg of niclosamide in each animal.
Blood samples were taken via tail vein bleed 1, 3, 6 and 24 hours post dose followed by bleeds at day 3, 4, 7 and 14. Niclosamide concentrations from the plasma samples were quantified utilising a previously validated liquid chromatography mass spectrometry (LCMS) method.

As for `O=C(Nc1ccc([N+](=O)[O-])cc1Cl)c1cc(Cl)ccc1O` [niclosamide, 5-chloro-N-(2-chloro-4-nitrophenyl)-2-hydroxybenzamide], the concentration at 24 h amounted to 140000 ng/g. Further, under “50 mg/kg”, the AUC(0-t) – broadly, the area under the concentration-time curve up to a stated or last time point – was 24800 ng·h/mL; the highest level (Cmax) was 1410 ng/mL; the Tmax (as a rule, the time from dosing to the highest level) came to 2.5 h. Besides, for the setting “100 mg/kg”, the area under the curve AUC(0-t) amounted to 47500 ng·h/mL; the Cmax (as a rule, the highest concentration seen after dosing) was found to be 2040 ng/mL; the Tmax worked out at 2 h. Moreover, under “200 mg/kg”, the AUC(0-t) turned out to be 58300 ng·h/mL, the Cmax was 3130 ng/mL and the Tmax was determined as 3 h.
